Target: Elastase (Pseudomonas aeruginosa (strain ATCC 15692 / DSM 22644 / CIP 104116 / JCM 14847 / LMG 12228 / 1C / PRS 101 / PAO1), UniProt P14756)
Assay: In Vitro LasB Activity Assay
Protocol: Fluorescence intensity was measured for 60 min at 37° C. in black 384-well microtiter plates (Greiner BioOne, Kremsm nster, Austria) using a CLARIOstar microplate reader (BMG Labtech, Ortenberg, Germany) with an excitation wavelength of […] and an emission wavelength of 415±20 nm. The assay was performed in a final volume of 50 μL of assay buffer (50 mM Tris, pH 7.2, 2.5 mM CaCl2), 0.075% Pluronic F-127, 5% DMSO) containing LasB at a final concentration of […] 0.3 nM and the substrate at 150 μM. Before substrate addition, compounds were preincubated with the enzyme at 37° C. for 15 min. Experiments were performed in duplicates and repeated for at least two times. Blank controls without enzyme were performed. After blank subtraction, the slope of samples containing inhibitors (v) was divided by the slope of a simultaneously started uninhibited enzymatic reaction (v0).

Sequence of Elastase (P14756 whole entry): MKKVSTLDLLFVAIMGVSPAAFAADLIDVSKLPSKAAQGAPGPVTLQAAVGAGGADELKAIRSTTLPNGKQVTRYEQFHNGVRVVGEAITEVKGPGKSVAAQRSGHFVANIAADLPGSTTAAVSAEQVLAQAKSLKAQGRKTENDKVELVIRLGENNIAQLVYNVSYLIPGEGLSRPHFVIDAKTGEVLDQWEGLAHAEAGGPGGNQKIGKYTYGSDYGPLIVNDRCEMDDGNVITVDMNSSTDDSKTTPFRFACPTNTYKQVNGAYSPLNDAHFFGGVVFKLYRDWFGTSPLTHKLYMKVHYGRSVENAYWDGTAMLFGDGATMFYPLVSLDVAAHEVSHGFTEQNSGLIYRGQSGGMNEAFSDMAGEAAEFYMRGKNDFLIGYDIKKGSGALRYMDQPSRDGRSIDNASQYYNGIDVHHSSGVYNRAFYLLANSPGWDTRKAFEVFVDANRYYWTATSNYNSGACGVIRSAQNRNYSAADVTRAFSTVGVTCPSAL

SMILES: CC(C)CC(C(=O)NO)C(=O)Nc1ccc(Cn2cc(CNS(=O)(=O)c3ccc(C(=O)O)cc3)nn2)cc1 (stereo unspecified) [US20250170104, Compound 209]
- IC50: 44.6 nM

— BindingDB's records for patent US20250170104 (Helmholtz-Zentrum Fur Infektionsforschung, 2025)
